Test results reported in PubChem BioAssay AID1745844 (Carcinogenic Potency Database (CPDB), 2022).
Activity calls are given as the source filed them. The rule behind the calls is not given here.

Test system: rodent lifetime carcinogenesis bioassay, tumor incidence TD50
Test: carcinogenic potency in animals, long-term in vivo studies, CPDB compilation (AID 1745844)

SMILES: CN(C)N=Nc1nc[nH]c1C(N)=O
- TD50 (mouse, strain Swiss, females, i.p., site: all sites, lesion: lymphosarcoma, dosed 26 weeks, study length 61 weeks): 8 mg/kg/day
- TD50 (mouse, strain Swiss, females, i.p., site: any site (literature study), lesion: benign tumor, dosed 26 weeks, study length 61 weeks): 7.03 mg/kg/day
- TD50 (mouse, strain Swiss, females, i.p., site: any site (literature study), lesion: malignant tumor, dosed 26 weeks, study length 61 weeks): 0.807 mg/kg/day
- TD50 (mouse, strain Swiss, females, i.p., site: lung, lesion: several types, types named in the paper, dosed 26 weeks, study length 61 weeks): 0.595 mg/kg/day
- TD50 (mouse, strain Swiss, females, i.p., site: spleen, lesion: hemangioendothelioma, dosed 26 weeks, study length 61 weeks): 14.5 mg/kg/day
- TD50 (mouse, strain Swiss, females, i.p., site: uterus, lesion: adenocarcinoma, dosed 26 weeks, study length 61 weeks): 3.2 mg/kg/day
- TD50 (mouse, strain Swiss, males, i.p., site: all sites, lesion: lymphatic leukemia, dosed 26 weeks, study length 78 weeks): 13 mg/kg/day
- TD50 (mouse, strain Swiss, males, i.p., site: all sites, lesion: lymphosarcoma, dosed 26 weeks, study length 78 weeks): 16.1 mg/kg/day
- TD50 (mouse, strain Swiss, males, i.p., site: any site (literature study), lesion: benign tumor, dosed 26 weeks, study length 78 weeks): 10.6 mg/kg/day
- TD50 (mouse, strain Swiss, males, i.p., site: any site (literature study), lesion: malignant tumor, dosed 26 weeks, study length 78 weeks): 1.54 mg/kg/day
- TD50 (mouse, strain Swiss, males, i.p., site: any site (literature study), lesion: several types, types named in the paper, dosed 26 weeks, study length 78 weeks): 0.813 mg/kg/day
- TD50 (mouse, strain Swiss, males, i.p., site: liver, lesion: several types, types named in the paper, dosed 26 weeks, study length 78 weeks): 98.8 mg/kg/day
- TD50 (mouse, strain Swiss, males, i.p., site: lung, lesion: several types, types named in the paper, dosed 26 weeks, study length 78 weeks): 2.57 mg/kg/day
- TD50 (mouse, strain Swiss, males, i.p., site: spleen, lesion: several types, types named in the paper, dosed 26 weeks, study length 78 weeks): 5.17 mg/kg/day
- TD50 (rat, strain Sprague-Dawley, females, in feed, site: mammary gland, lesion: adenofibroma, dosed 46 weeks, study length 60 weeks): 0.71 mg/kg/day
- TD50 (rat, strain Sprague-Dawley, females, in feed, site: thymus gland, lesion: lymphosarcoma, dosed 46 weeks, study length 60 weeks): 4.21 mg/kg/day
- TD50 (rat, strain Sprague-Dawley, females, in feed, site: uterus, lesion: leiomyosarcoma, dosed 46 weeks, study length 60 weeks): 6.55 mg/kg/day

SMILES: N#CN
- TD50 (mouse, strain B6AKF1, males, oral dosing, site: liver, lesion: hepatoma, dosed 76 weeks, study length 76 weeks): 191 mg/kg/day
- TD50 (mouse, strain B6C3F1, females, in feed, site: all sites, lesion: leukemia + lymphoma, dosed 100 weeks, study length 100 weeks): 478 mg/kg/day (inactive)
- TD50 (mouse, strain B6C3F1, females, in feed, site: lung, lesion: alveolar/bronchiolar adenoma + alveolar/bronchiolar carcinoma, dosed 100 weeks, study length 100 weeks): 4040 mg/kg/day
- TD50 (mouse, strain B6C3F1, females, oral dosing, site: any site (literature study), lesion: several types, types named in the paper, dosed 76 weeks, study length 76 weeks): 68 mg/kg/day
- TD50 (mouse, strain B6C3F1, males, in feed, site: all sites, lesion: hemangiosarcoma, dosed 100 weeks, study length 100 weeks): 766 mg/kg/day (inactive)
- TD50 (mouse, strain B6C3F1, males, in feed, site: any site (literature study), lesion: several types, types named in the paper, dosed 100 weeks, study length 100 weeks): 909 mg/kg/day
- TD50 (mouse, strain B6C3F1, males, oral dosing, site: all sites, lesion: reticulum-cell sarcoma, dosed 76 weeks, study length 76 weeks): 30.9 mg/kg/day
- TD50 (mouse, strain B6C3F1, males, oral dosing, site: any site (literature study), lesion: several types, types named in the paper, dosed 76 weeks, study length 76 weeks): 16.7 mg/kg/day
- TD50 (mouse, strain B6C3F1, males, oral dosing, site: liver, lesion: hepatoma, dosed 76 weeks, study length 76 weeks): 55.7 mg/kg/day
- TD50 (rat, strain Fischer 344, females, in feed, site: any site (literature study), lesion: several types, types named in the paper, dosed 107 weeks, study length 107 weeks): 267 mg/kg/day (inactive)
- TD50 (rat, strain Fischer 344, males, in feed, site: all sites, lesion: leukemia + lymphoma + neoplasm, NOS, dosed 107 weeks, study length 107 weeks): 7.45 mg/kg/day (inactive)

SMILES: Cc1c([N+](=O)[O-])c(C)c([N+](=O)[O-])c(C(C)(C)C)c1[N+](=O)[O-]
- TD50 (mouse, strain B6C3F1, females, in feed, site: Harderian gland, lesion: several types, types named in the paper, dosed 80 weeks, study length 90 weeks): 2250 mg/kg/day
- TD50 (mouse, strain B6C3F1, females, in feed, site: all sites, lesion: lymphoma, dosed 80 weeks, study length 90 weeks): 1300 mg/kg/day
- TD50 (mouse, strain B6C3F1, females, in feed, site: any site (literature study), lesion: malignant tumor, dosed 80 weeks, study length 90 weeks): 418 mg/kg/day
- TD50 (mouse, strain B6C3F1, females, in feed, site: liver, lesion: hepatocellular adenoma, dosed 80 weeks, study length 90 weeks): 234 mg/kg/day
- TD50 (mouse, strain B6C3F1, females, in feed, site: liver, lesion: hepatocellular carcinoma, dosed 80 weeks, study length 90 weeks): 2190 mg/kg/day
- TD50 (mouse, strain B6C3F1, females, in feed, site: liver, lesion: several types, types named in the paper, dosed 80 weeks, study length 90 weeks): 203 mg/kg/day
- TD50 (mouse, strain B6C3F1, females, in feed, site: lung, lesion: adenoma, dosed 80 weeks, study length 90 weeks): 1630 mg/kg/day
- TD50 (mouse, strain B6C3F1, females, in feed, site: lung, lesion: carcinoma, dosed 80 weeks, study length 90 weeks): 6650 mg/kg/day
- TD50 (mouse, strain B6C3F1, females, in feed, site: lung, lesion: several types, types named in the paper, dosed 80 weeks, study length 90 weeks): 1300 mg/kg/day
- TD50 (mouse, strain B6C3F1, females, in feed, site: uterus, lesion: endometrial stromal sarcoma, dosed 80 weeks, study length 90 weeks): 533 mg/kg/day
- TD50 (mouse, strain B6C3F1, males, in feed, site: Harderian gland, lesion: adenoma, dosed 80 weeks, study length 90 weeks): 383 mg/kg/day
- TD50 (mouse, strain B6C3F1, males, in feed, site: Harderian gland, lesion: several types, types named in the paper, dosed 80 weeks, study length 90 weeks): 425 mg/kg/day
- TD50 (mouse, strain B6C3F1, males, in feed, site: any site (literature study), lesion: malignant tumor, dosed 80 weeks, study length 90 weeks): 334 mg/kg/day
- TD50 (mouse, strain B6C3F1, males, in feed, site: liver, lesion: hepatocellular adenoma, dosed 80 weeks, study length 90 weeks): 232 mg/kg/day
- TD50 (mouse, strain B6C3F1, males, in feed, site: liver, lesion: hepatocellular carcinoma, dosed 80 weeks, study length 90 weeks): 313 mg/kg/day
- TD50 (mouse, strain B6C3F1, males, in feed, site: liver, lesion: several types, types named in the paper, dosed 80 weeks, study length 90 weeks): 92.1 mg/kg/day
- TD50 (mouse, strain B6C3F1, males, in feed, site: lung, lesion: adenoma, dosed 80 weeks, study length 90 weeks): 1200 mg/kg/day
